From the supplement of paper PMC4862054

How the values were obtained:
CAL-148 [1] = conditions: 72 h
Procedure, shortened: (§1)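 Viability of breast cancer cell lines was measured with CellTiter-Blue after 72 h of incubation on compound-loaded 384-well plates. Cells were seeded in 20 µl onto compound dissolved in 5 µl medium, and 2.5 µl reagent was added for 2 h at 37 °C before reading at 560/590 nm. EC50 was fitted from percent-inhibition dose-response data censored at the highest concentration, normalised per plate to vehicle and a positive kill control, with zero drug sensitivity score rows dropped.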

MDA-MB-453 [2] = conditions: 72 h
Procedure, shortened: as §1

MDA-MB-453 [3] = assay: normalised viability (% of control), CellTiter-Blue; higher = more viable cells (about 100 = DMSO control); conditions: incubation time: 72 h
Description: (§2)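 DSRT, CellTiter-Blue viability, 72 h incubation. Signal is normalised to DMSO and benzethonium chloride controls. Value is the normalised response at dose 9.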

CAL-51 [4] = assay: as above; conditions: incubation time: 72 h
Description: as §2

CAL-85-1 [5] = assay: as above; conditions: incubation time: 72 h
Description: as §2

DU-4475 [6] = assay: as above; conditions: incubation time: 72 h
Description: as §2

HDQ-P1 [7] = assay: as above; conditions: incubation time: 72 h
Description: as §2

CAL-148 [8] = assay: as above; conditions: incubation time: 72 h
Description: as §2

MDA-MB-453 [9] = assay: normalised response (% of control), CellTiter-Glo; higher = more viable cells (100 = DMSO, 0 = benzethonium chloride kill control); conditions: incubation time: 72 h
Procedure, shortened: (§3)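 Breast cancer cell lines, seeded at 20 µl suspension per well, were incubated for 72 h in 384-well plates containing compound at 5 concentrations. These concentrations rose in 10-fold steps over a 10,000-fold range set for each compound. CellTox Green fluorescence (485/520 nm) was read, then CellTiter-Glo luminescence after 10 min at room temperature, and each plate was normalised to 0.1 % DMSO (100) and a positive kill control (0). Values are normalised signals, each at one concentration.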

Hs578T = assay: as above; conditions: incubation time: 72 h
Procedure, shortened: as §3

HCC1599 = assay: as above; conditions: incubation time: 72 h
Procedure, shortened: as §3

HCC1143 = assay: as above; conditions: incubation time: 72 h
Procedure, shortened: as §3

MDA-MB-436 = assay: as above; conditions: incubation time: 72 h
Procedure, shortened: as §3

CAL-51 [10] = assay: as above; conditions: incubation time: 72 h
Procedure, shortened: as §3

BT-474 = assay: as above; conditions: incubation time: 72 h
Procedure, shortened: as §3

CAL-85-1 [11] = assay: as above; conditions: incubation time: 72 h
Procedure, shortened: as §3

MDA-MB-231 = assay: as above; conditions: incubation time: 72 h
Procedure, shortened: as §3

CAL-120 = assay: as above; conditions: incubation time: 72 h
Procedure, shortened: as §3

MFM-223 = assay: as above; conditions: incubation time: 72 h
Procedure, shortened: as §3

DU-4475 [12] = assay: as above; conditions: incubation time: 72 h
Procedure, shortened: as §3

HDQ-P1 [13] = assay: as above; conditions: incubation time: 72 h
Procedure, shortened: as §3

HCC1937 = assay: as above; conditions: incubation time: 72 h
Procedure, shortened: as §3

BT-549 = assay: as above; conditions: incubation time: 72 h
Procedure, shortened: as §3

SMILES	EC50, CellTiter-Blue viability (CAL-148 [1]) [nM]	EC50, CellTiter-Blue viability (MDA-MB-453 [2]) [nM]	normalised viability (MDA-MB-453 [3]) [%]	normalised viability (CAL-51 [4]) [%]	normalised viability (CAL-85-1 [5]) [%]	normalised viability (DU-4475 [6]) [%]	normalised viability (HDQ-P1 [7]) [%]	normalised viability (CAL-148 [8]) [%]	normalised response (MDA-MB-453 [9]) [%]	normalised response (Hs578T) [%]	normalised response (HCC1599) [%]	normalised response (HCC1143) [%]	normalised response (MDA-MB-436) [%]	normalised response (CAL-51 [10]) [%]	normalised response (BT-474) [%]	normalised response (CAL-85-1 [11]) [%]	normalised response (MDA-MB-231) [%]	normalised response (CAL-120) [%]	normalised response (MFM-223) [%]	normalised response (DU-4475 [12]) [%]	normalised response (HDQ-P1 [13]) [%]	normalised response (HCC1937) [%]	normalised response (BT-549) [%]
C=C(c1ccc(C(=O)O)cc1)c1cc2c(cc1C)C(C)(C)CCC2(C)C [Bexarotene]	1730	–	–	–	–	–	–	–	–	–	–	–	–	–	–	–	–	–	–	–	–	–	–
CCN(CCCOc1ccc2c(Nc3cc(CC(=O)Nc4cccc(F)c4)[nH]n3)ncnc2c1)CCOP(=O)(O)O [Barasertib]	7.07	6.32	–	–	–	–	–	–	–	–	–	–	–	–	–	–	–	–	–	–	–	–	–
CC(C)Cn1cnc2c(N)nc3ccccc3c21 [Imiquimod]	–	6690	–	–	–	–	–	–	–	–	–	–	–	–	–	–	–	–	–	–	–	–	–
CN[C@@H]1C[C@H]2O[C@@](C)([C@@H]1OC)n1c3ccccc3c3c4c(c5c6ccccc6n2c5c31)C(=O)N[C@H]4O [UCN-01] (10000 nM)	–	–	2.09	5.97	1.96	2.14	2.76	3.64	5.51	2.67	13.7	8.19	7.46	2.83	4.43	0.55	1.54	7.18	24.1	3.81	2.74	7.74	0.77
Clc1ccc(Nc2nnc(Cc3ccncc3)c3ccccc23)cc1 [Vatalanib] (10000 nM)	–	–	91.1	99.4	83.2	102	90.6	84.5	90.3	106	91.5	98.3	109	115	94.5	106	101	104	110	95.2	98.4	96	95.5
COc1cc([C@@H]2c3cc4c(cc3[C@@H](O[C@@H]3O[C@@H]5CO[C@@H](C)O[C@H]5[C@H](O)[C@H]3O)[C@H]3COC(=O)[C@H]23)OCO4)cc(OC)c1O [Etoposide]	1130	–	–	–	–	–	–	–	–	–	–	–	–	–	–	–	–	–	–	–	–	–	–
Cn1c(Nc2ccc(C(F)(F)F)cc2)nc2cc(Oc3ccnc(-c4ncc(C(F)(F)F)[nH]4)c3)ccc21 [RAF265] (1000 nM)	–	–	89.2	48	47.2	42.3	34	64.1	95.8	78.2	73.7	94.2	67.7	52.1	79.6	40.7	83.5	67.2	48	71.8	47.2	63.7	68.7
CC1(C)NC(=O)N(c2ccc([N+](=O)[O-])c(C(F)(F)F)c2)C1=O [Nilutamide] (10000 nM)	–	–	106	89.4	90.7	97.4	136	99.8	102	104	106	101	114	76.1	103	99.7	105	103	104	97.4	95.1	94.3	93.9
COc1cc2nccc(Oc3ccc(NC(=O)C4(C(=O)Nc5ccc(F)cc5)CC4)cc3)c2cc1OC [Cabozantinib] (1000 nM)	–	–	37.1	86.5	45.1	108	88.5	78.7	95.4	89	102	95.3	101	111	83.8	107	79.2	95.2	64.6	102	94	95.4	104
Cc1ccc(-n2nc(C(C)(C)C)cc2NC(=O)Nc2ccc(OCCN3CCOCC3)c3ccccc23)cc1 [Doramapimod] (10000 nM)	–	–	62.7	86.8	72.6	102	81	111	82.9	97.8	68.7	91.3	99.7	105	80.3	96.1	87.5	94.8	70.2	92.7	82.3	77.7	104
O=C1CCC(N2C(=O)c3ccccc3C2=O)C(=O)N1 (stereo not given) [Thalidomide] (10000 nM)	–	–	102	90.6	104	97.5	105	106	97.2	96.8	101	94.7	96	84.7	94.6	93.5	94.2	100	100	93.3	98.2	98	96.7
Cn1c(CCCC(=O)O)nc2cc(N(CCCl)CCCl)ccc21 [Bendamustine] (10000 nM)	–	–	121	99	92.9	78.6	113	92.4	120	103	96.6	111	105	132	99.6	107	109	108	106	101	113	108	101
C#Cc1cccc(Nc2ncnc3cc(OCCOC)c(OCCOC)cc23)c1 [Erlotinib] (10000 nM)	–	–	55.1	50.9	47.7	84.5	68	24.7	90	85.8	92.7	79.7	79	77	75.9	40.2	83.4	79.8	78.1	101	66.1	76.4	75.4
CO[C@H]1/C=C\C=C(/C)C(=O)NC2=CC(=O)C(NCCN(C)C)=C(C[C@@H](C)C[C@H](OC)[C@H](O)[C@@H](C)/C=C(\C)[C@@H]1OC(N)=O)C2=O [Alvespimycin] (1000 nM)	–	–	3.62	6.39	18.6	-0.26	29.6	4.23	28.1	35.4	58.8	33.1	44.9	16.2	28	18.1	19	47.8	39.2	0.05	22.4	21.6	39.5
O=P1(NCCCl)OCCCN1CCCl (stereo not given) [Ifosfamide] (10000 nM)	–	–	106	107	88.4	85.1	125	101	94.5	98.7	110	96.8	92.5	101	90.3	96.3	90.5	96.3	90	87.1	94	96.5	99.3
Cc1ccc(C(=O)Nc2ccc(CN3CCN(C)CC3)c(C(F)(F)F)c2)cc1C#Cc1cnc2cccnn12 [Ponatinib] (1000 nM)	–	–	38.4	42	50.1	50.2	21.9	77.5	77.3	53.9	108	86	64.7	47	30.6	58	15.5	41.2	43.7	77.4	36.5	60.6	36
CN(C)/N=N/c1[nH]cnc1C(N)=O [Dacarbazine] (10000 nM)	–	–	105	91.2	87.5	103	104	96.2	99.9	100	109	109	108	135	102	101	111	86	103	107	93.4	96.5	99.4
Oc1nc(-c2ccc(C(F)(F)F)cc2)nc2c1CSCC2 [XAV-939] (10000 nM)	–	–	71.5	89.2	82.3	100	76.2	76.9	81.7	95.9	80.6	91.4	91.8	66.6	73	95.8	74.5	92.8	89.4	87.3	86.7	89.7	90.5
N[C@@H](CSC(c1ccccc1)(c1ccccc1)c1ccccc1)C(=O)O [S-trityl-L-cysteine] (40000 nM)	–	–	83.2	87	87.5	92.2	65	114	86.2	89.6	103	92.8	95.3	123	89.6	101	91.1	101	92	92.3	102	93.5	106
